From patent US20230024442A1, “BIFUNCTIONAL COMPOUNDS FOR GRADING BTK VIA UBIQUITIN PROTEOSOME PATHWAY” (NURIX THERAPEUTICS, INC., priority 2019, published 2023)

What follows are compounds tested against T1, BTK (Homo sapiens, UniProt Q06187) (assay: Cellular BTK HTRF Assay (BTK levels in Ramos cells)). Details: Ramos cells, 50,000 cells, incubated four hours at 37° C.; BTK levels by Cisbio Total-BTK HTRF relative to DMSO-treated cells.
T1 construct: endogenous in cells; host or cells: Ramos (ATCC CRL-1596)
T1 sequence (Q06187 whole entry): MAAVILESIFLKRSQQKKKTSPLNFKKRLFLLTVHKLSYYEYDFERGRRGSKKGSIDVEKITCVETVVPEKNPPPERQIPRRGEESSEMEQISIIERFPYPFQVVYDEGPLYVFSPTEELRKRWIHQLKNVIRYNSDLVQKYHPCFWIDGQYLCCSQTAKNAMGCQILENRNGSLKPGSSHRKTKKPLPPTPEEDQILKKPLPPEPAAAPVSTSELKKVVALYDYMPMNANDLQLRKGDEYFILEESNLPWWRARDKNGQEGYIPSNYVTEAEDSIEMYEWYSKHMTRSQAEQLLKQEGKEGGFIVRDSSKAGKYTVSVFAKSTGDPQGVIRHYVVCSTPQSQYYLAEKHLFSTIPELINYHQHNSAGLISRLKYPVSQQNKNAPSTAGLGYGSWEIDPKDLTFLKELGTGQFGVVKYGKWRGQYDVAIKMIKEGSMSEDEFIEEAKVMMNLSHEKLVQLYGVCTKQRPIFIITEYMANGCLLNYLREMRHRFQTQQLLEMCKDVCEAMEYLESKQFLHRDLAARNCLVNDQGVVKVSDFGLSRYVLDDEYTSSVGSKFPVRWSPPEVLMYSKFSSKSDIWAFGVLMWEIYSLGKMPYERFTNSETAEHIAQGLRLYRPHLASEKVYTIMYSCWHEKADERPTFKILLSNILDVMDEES
Assay type: cell-based
Procedure: Ramos (CRL-1596) cells were obtained from American Type Culture Collection and were grown in RPMI-1640 media (ATCC, 30-2001) supplemented with 10% heat-inactivated FBS (Corning Premium Fetal Bovine Serum from Fisher, MT35015CV).
Compounds of the present invention were added to 50,000 Ramos cells in round-bottom 96 well plates with a final DMSO concentration of […] and were incubated at 37° C. 5% CO2 for four hours. BTK levels were determined using Cisbio Total-BTK HTRF ([…] Time-Resolved Fluorescence) kit (63ADK064PEG) according to manufacturer's protocol. Briefly, cells were incubated in 1× supplied lysis buffer for 30 minutes. In an opaque white low volume 96 well plate (Cisbio, 66PL96005), cell lysate was combined with two different specific BTK antibodies, one conjugated with Eu^3+-Cryptate FRET donor and one conjugated with d2 FRET acceptor. Assay controls include wells containing cell lysate with only the Eu^3+-Cryptate FRET donor antibody and wells containing both HTRF antibodies and lysis buffer without cells or control lysate provided by Cisbio. HTRF ratio was calculated as (acceptor signal at 665 nm/donor signal at 620 nm)×10^4. Background HTRF levels were determined from the control well containing the donor, but no acceptor, antibody. Background HTRF levels were subtracted from all samples. Readouts were reported as HTRF levels relative to HTRF levels of DMSO-treated cells. Four-parameter non-linear regressions were performed in GraphPad Prism 7.02 to obtain DC50 values. DC50 values are provided in Table 7, wherein A<1 nM, 1 nM≤B≤10 nM, and 10 nM<C<1 μM.
In the case of `Cn1cc(-c2ccnc(-n3ncc4cc(C(C)(C)C)cc(F)c4c3=O)c2CO)cc(Nc2cc3n(n2)CCN(C(=O)CNc2cccc4c2C(=O)N(C2CCC(=O)NC2=O)C4=O)C3)c1=O` (stereo not shown) [Compound 12], the DC50 is reported as 0.001 to 0.01 µM.
With `Cn1cc(-c2ccnc(-n3ncc4cc(C(C)(C)C)cc(F)c4c3=O)c2CO)cc(Nc2cc3n(n2)CCN(C(=O)[C@H]2CC[C@H](Nc4cccc5c4C(=O)N(C4CCC(=O)NC4=O)C5=O)CC2)C3)c1=O` (stereo partly shown) [Compound 15] the DC50 was 0.001 to 0.01 µM.
Compound `C[C@H]1CN(C(=O)CCOCCNc2cccc3c2C(=O)N(C2CCC(=O)NC2=O)C3=O)CCN1c1ccc(Nc2cc(-c3ccnc(N4CCn5c(cc6c5CC(C)(C)C6)C4=O)c3CO)cn(C)c2=O)nc1` (stereo partly shown) [Compound 55] has a DC50 of 0.001 to 0.01 µM.
Work on `C[C@@H]1CN(C(=O)CCOCCOCCOCCOCCOCCNc2cccc3c2C(=O)N(C2CCC(=O)NC2=O)C3=O)CCN1c1ccc(Nc2cc(-c3ccnc(N4CCn5c(cc6c5CC(C)(C)C6)C4=O)c3CO)cn(C)c2=O)nc1` (stereo partly shown) [Compound 50] yielded a DC50 of 0.001 to 0.01 µM.
`Cn1cc(-c2ccnc(-n3ncc4cc(C(C)(C)C)cc(F)c4c3=O)c2CO)cc(Nc2cc3n(n2)CCN(C(=O)CCOCCCc2cccc4c2C(=O)N(C2CCC(=O)NC2=O)C4=O)C3)c1=O` (stereo not shown) [Compound 21] showed a DC50 of 0.01 to 1 µM.
With `Cn1cc(-c2ccnc(-n3ncc4cc(C(C)(C)C)cc(F)c4c3=O)c2CO)cc(Nc2cc3n(n2)CCN(C(=O)CCCCc2cccc4c2CN(C2CCC(=O)NC2=O)C4=O)C3)c1=O` (stereo not shown) [Compound 11] the DC50 was 0.001 to 0.01 µM.
With `Cn1cc(-c2ccnc(-n3ncc4cc(C(C)(C)C)cc(F)c4c3=O)c2CO)cc(Nc2cc3n(n2)CCN(C(=O)CCCN2CCN(c4cc5c(cc4F)C(=O)N(C4CCC(=O)NC4=O)C5=O)CC2)C3)c1=O` (stereo not shown) [Compound 23] the DC50 was 0.001 to 0.01 µM.
Compound `CN[C@@H](C)C(=O)N[C@H](C(=O)N1C[C@@H](NC(=O)CCOCCC(=O)N2CCn3nc(Nc4cc(-c5ccnc(-n6ncc7cc(C(C)(C)C)cc(F)c7c6=O)c5CO)cn(C)c4=O)cc3C2)C[C@H]1C(=O)N[C@@H]1CCCc2ccccc21)C1CCCCC1` [Compound 4, (2S,4S)-4-(3-(3-(2-((2′-(6-(tert-butyl)-8-fluoro-1-oxophthalazin-2(1H)-yl)-3′-(hydroxymethyl)-1-methyl-6-oxo-1,6-dihydro-[3,4′-bipyridin]-5-yl)amino)-6,7-dihydropyrazolo[1,5-a]pyrazin-5(4H)-yl)-3-oxopropoxy)propanamido)-1-((S)-2-cyclohexyl-2-((S)-2-(methylamino)propanamido)acetyl)—N—((R)-1,2,3,4-tetrahydronaphthalen-1-yl)pyrrolidine-2-carboxamide] has a DC50 of 0.01 to 1 µM.
Compound `Cn1cc(-c2ccnc(-n3ncc4cc(C(C)(C)C)cc(F)c4c3=O)c2CO)cc(Nc2cc3n(n2)CCN(C(=O)[C@H]2C[C@@H](OCCCc4cccc5c4CN(C4CCC(=O)NC4=O)C5=O)C2)C3)c1=O` (stereo partly shown) [Compound 17] has a DC50 of 0.01 to 1 µM.
For `C[C@H]1CN(C(=O)CCOCCN2CCN(CCOCCOCCNc3cccc4c3C(=O)N(C3CCC(=O)NC3=O)C4=O)CC2)CCN1c1ccc(Nc2cc(-c3ccnc(N4CCn5c(cc6c5CC(C)(C)C6)C4=O)c3CO)cn(C)c2=O)nc1` (stereo partly shown) [Compound 42], the DC50 was 0.01 to 1 µM.
`Cn1cc(-c2ccnc(-n3ncc4cc(C(C)(C)C)cc(F)c4c3=O)c2CO)cc(Nc2cc3n(n2)CCN(C(=O)CCOCCNc2cccc4c2C(=O)N(C2CCC(=O)NC2=O)C4=O)C3)c1=O` (stereo not shown) [Compound 1] gave a DC50 of 0.001 to 0.01 µM.
Compound `C[C@H]1CN(C(=O)CN2CCN(Cc3cccc4c3CN(C3CCC(=O)NC3=O)C4=O)CC2)CCN1c1ccc(Nc2cc(-c3ccnc(N4CCn5c(cc6c5CC(C)(C)C6)C4=O)c3CO)cn(C)c2=O)nc1` (stereo partly shown) [Compound 27] has a DC50 of 0.01 to 1 µM.
`C[C@H]1CN(C(=O)CCNc2cccc3c2C(=O)N(C2CCC(=O)NC2=O)C3=O)CCN1c1ccc(Nc2cc(-c3ccnc(N4CCn5c(cc6c5CC(C)(C)C6)C4=O)c3CO)cn(C)c2=O)nc1` (stereo partly shown) [Compound 36] gave a DC50 of 0.01 to 1 µM.
For `C[C@@H]1CN(CCOCCNc2cccc3c2C(=O)N(C2CCC(=O)NC2=O)C3=O)CCN1c1ccc(Nc2cc(-c3ccnc(N4CCn5c(cc6c5CC(C)(C)C6)C4=O)c3CO)cn(C)c2=O)nc1` (stereo partly shown) [Compound 40], the DC50 was < 0.001 µM.
`C[C@H]1CN(C(=O)CCCc2cccc3c2CN(C2CCC(=O)NC2=O)C3=O)CCN1c1ccc(Nc2cc(-c3ccnc(N4CCn5c(cc6c5CC(C)(C)C6)C4=O)c3CO)cn(C)c2=O)nc1` (stereo partly shown) [Compound 33] gave a DC50 of 0.001 to 0.01 µM.
With `Cn1cc(-c2ccnc(-n3ncc4cc(C(C)(C)C)cc(F)c4c3=O)c2CO)cc(Nc2cc3n(n2)CCN(C(=O)CCNc2cccc4c2C(=O)N(C2CCC(=O)NC2=O)C4=O)C3)c1=O` (stereo not shown) [Compound 10] the DC50 was 0.01 to 1 µM.
In the case of `C[C@H]1CN(C(=O)CCOCCOCCOCCOCCNc2cccc3c2C(=O)N(C2CCC(=O)NC2=O)C3=O)CCN1c1ccc(Nc2cc(-c3ccnc(N4CCn5c(cc6c5CC(C)(C)C6)C4=O)c3CO)cn(C)c2=O)nc1` (stereo partly shown) [Compound 51], the DC50 is reported as 0.001 to 0.01 µM.
With `C[C@@H]1CN(C(=O)CCOCCOCCOCCOCCCc2cccc3c2CN(C2CCC(=O)NC2=O)C3=O)CCN1c1ccc(Nc2cc(-c3ccnc(N4CCn5c(cc6c5CC(C)(C)C6)C4=O)c3CO)cn(C)c2=O)nc1` (stereo partly shown) [Compound 54] the DC50 was 0.001 to 0.01 µM.
`C[C@H]1CN(C(=O)NCCOCCOCCOCCCc2cccc3c2CN(C2CCC(=O)NC2=O)C3=O)CCN1c1ccc(Nc2cc(-c3ccnc(N4CCn5c(cc6c5CC(C)(C)C6)C4=O)c3CO)cn(C)c2=O)nc1` (stereo partly shown) [Compound 47] was tested, and the DC50 was 0.001 to 0.01 µM.
In the case of `C[C@H]1CN(C(=O)C2CC3(CC(Nc4cccc5c4C(=O)N(C4CCC(=O)NC4=O)C5=O)C3)C2)CCN1c1ccc(Nc2cc(-c3ccnc(N4CCn5c(cc6c5CC(C)(C)C6)C4=O)c3CO)cn(C)c2=O)nc1` (stereo partly shown) [Compound 34], the DC50 is reported as 0.001 to 0.01 µM.
Compound `CN[C@@H](C)C(=O)N[C@H](C(=O)N1CCC[C@H]1c1nc(C(=O)c2cccc(OCCOCCOCCOCCC(=O)N3CCn4nc(Nc5cc(-c6ccnc(-n7ncc8cc(C(C)(C)C)cc(F)c8c7=O)c6CO)cn(C)c5=O)cc4C3)c2)cs1)C1CCCCC1` (stereo in doubt) [Compound 7, (S)—N—((S)-2-((S)-2-(4-(3-(2-(2-(2-(3-(2-((2′-(6-(tert-butyl)-8-fluoro-1-oxophthalazin-2(1H)-yl)-3′-(hydroxymethyl)-1-methyl-6-oxo-1,6-dihydro-[3,4′-bipyridin]-5-yl)amino)-6,7-dihydropyrazolo[1,5-a]pyrazin-5(4H)-yl)-3-oxopropoxy)ethoxy)ethoxy)ethoxy)benzoyl)thiazol-2-yl)pyrrolidin-1-yl)-1-cyclohexyl-2-oxoethyl)-2-(methylamino)propanamide] has a DC50 of 0.01 to 1 µM.
`C[C@@H]1CN(C(=O)NCCCCCCOCCCc2cccc3c2CN(C2CCC(=O)NC2=O)C3=O)CCN1c1ccc(Nc2cc(-c3ccnc(N4CCn5c(cc6c5CC(C)(C)C6)C4=O)c3CO)cn(C)c2=O)nc1` (stereo partly shown) [Compound 48] was tested, and the DC50 was 0.001 to 0.01 µM.
`CN[C@@H](C)C(=O)N[C@H](C(=O)N1C[C@@H](NC(=O)CCOCCOCCOCCC(=O)N2CCn3nc(Nc4cc(-c5ccnc(-n6ncc7cc(C(C)(C)C)cc(F)c7c6=O)c5CO)cn(C)c4=O)cc3C2)C[C@H]1C(=O)N[C@@H]1CCCc2ccccc21)C1CCCCC1` [Compound 5, (2S,4S)-4-(3-(2-(2-(3-(2-((2′-(6-(tert-butyl)-8-fluoro-1-oxophthalazin-2(1H)-yl)-3′-(hydroxymethyl)-1-methyl-6-oxo-1,6-dihydro-[3,4′-bipyridin]-5-yl)amino)-6,7-dihydropyrazolo[1,5-a]pyrazin-5(4H)-yl)-3-oxopropoxy)ethoxy)ethoxy)propanamido)-1-((S)-2-cyclohexyl-2-((S)-2-(methylamino)propanamido)acetyl)—N—((R)-1,2,3,4-tetrahydronaphthalen-1-yl)pyrrolidine-2-carboxamide] was tested, and the DC50 was 0.01 to 1 µM.
`C[C@H]1CN(CCOCCOCCOCCOCCOCCNc2cccc3c2C(=O)N(C2CCC(=O)NC2=O)C3=O)CCN1c1ccc(Nc2cc(-c3ccnc(N4CCn5c(cc6c5CC(C)(C)C6)C4=O)c3CO)cn(C)c2=O)nc1` (stereo partly shown) [Compound 39] was tested, and the DC50 was 0.001 to 0.01 µM.
For `C[C@@H]1CN(C(=O)CCCN2CCN(c3ccc4c(c3)C(=O)N(C3CCC(=O)NC3=O)C4=O)CC2)CCN1c1ccc(Nc2cc(-c3ccnc(N4CCn5c(cc6c5CC(C)(C)C6)C4=O)c3CO)cn(C)c2=O)nc1` (stereo partly shown) [Compound 56], the DC50 was 0.001 to 0.01 µM.
